Like-named read-outs stand apart in the source and are kept apart here. Square brackets hold non-standard residues; d marks the D form. Peptide text beside a SMILES is read from it. NMeTrp(1-(4-Br-benzyl)) = CN[C@@H](Cc1cn(Cc2ccc(Br)cc2)c2ccccc12)C(=O)O; Butanoyl(2R-oxy,4-CN) = N#CCC[C@@H](O)C(=O)O; Abu(4,4,4-F3) = N[C@@H](CC(F)(F)F)C(=O)O; NMeL = CN[C@@H](CC(C)C)C(=O)O; NMeA = CN[C@@H](C)C(=O)O
Target: T1, Sec61 (Homo sapiens, UniProt P61619)
T1 construct: endogenous in cells
Assay: signal peptide-GLuc (SP-GLuc) reporter panel, 89 constructs
Assay type: cell-based
Details: read-out: IC50
Text: The heat map depicts IC50 values calculated from each SP-GLuc dose–response curve. d, Arthritis was induced in BALB/c mice with antibodies specific for type II collagen (mAb) on day 0 and endotoxin on day 3. On day 4, when the disease was present in all animals, mice were randomized and treated for 2 weeks with thrice weekly (QODx3) or weekly (QW) intravenous administration of vehicle or KZR-8445 or intraperitoneal administration of dexamethasone. Clinical scores (0–4 per paw; n = 10 per group) and body weights were followed until day 14. Data are presented as mean values ± s.d. mAb, monoclonal antibody. Source data
To investigate the effects of KZR-8445 on secretory and membrane protein biogenesis and to establish Sec61α as the relevant target, we quantified the secretion of a doxycycline-inducible Gaussia luciferase (GLuc) reporter fused to the C-terminus of two full-length pro-inflammatory cytokines, interleukin-2 (IL-2) (which contains a cleavable signal peptide) and tumor necrosis factor-alpha (TNFα) (which contains an N-terminal transmembrane anchor). […] KZR-8445 is structurally related to CT8, which discriminates among Sec61 clients based largely on their N-terminal signal peptide. […] We also directly compared KZR-8445 to mycolactone A/B, a structurally distinct and relatively client-nonselective Sec61 inhibitor[8],[25], for their ability to discriminate between vascular cell adhesion molecule (VCAM) and preprolactin (pPL) signal peptides.

T1 sequence (P61619 whole entry): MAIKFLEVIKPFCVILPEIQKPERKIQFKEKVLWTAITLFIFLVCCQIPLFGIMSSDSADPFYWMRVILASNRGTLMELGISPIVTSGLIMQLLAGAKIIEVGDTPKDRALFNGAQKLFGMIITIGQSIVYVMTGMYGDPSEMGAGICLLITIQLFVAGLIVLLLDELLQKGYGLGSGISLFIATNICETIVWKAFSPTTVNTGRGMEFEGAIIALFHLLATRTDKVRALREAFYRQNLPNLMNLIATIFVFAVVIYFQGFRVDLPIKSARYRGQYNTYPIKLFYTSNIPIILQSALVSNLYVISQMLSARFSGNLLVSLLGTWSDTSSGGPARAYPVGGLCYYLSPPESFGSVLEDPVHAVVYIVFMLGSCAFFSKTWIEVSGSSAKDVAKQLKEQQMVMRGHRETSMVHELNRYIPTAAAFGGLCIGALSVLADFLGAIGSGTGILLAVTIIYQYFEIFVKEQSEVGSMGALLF
T1 sequence (P60059 whole entry, further chain): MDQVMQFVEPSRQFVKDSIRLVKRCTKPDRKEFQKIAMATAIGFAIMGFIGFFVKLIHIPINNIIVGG
T1 sequence (P60468 whole entry, further chain): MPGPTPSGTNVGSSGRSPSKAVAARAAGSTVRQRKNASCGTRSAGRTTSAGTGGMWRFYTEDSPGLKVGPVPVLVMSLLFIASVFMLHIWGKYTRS

For `CC(C)C[C@@H]1NC(=O)[C@H](Cc2cn(Cc3ccc(Br)cc3)c3ccccc23)N(C)C(=O)[C@H](CC(F)(F)F)NC(=O)[C@H](CC(C)C)N(C)C(=O)[C@H](CC(F)(F)F)NC(=O)[C@@H](CCC#N)OC(=O)[C@H](C)N(C)C1=O` [KZR-0508445] (cyclo(L[NMeA][Butanoyl(2R-oxy,4-CN)][Abu(4,4,4-F3)][NMeL][Abu(4,4,4-F3)][NMeTrp(1-(4-Br-benzyl))])), the IC50 (F3 signal peptide-GLuc reporter) was 162 nM, the IC50 (FGF23 signal peptide-GLuc reporter) was 28.2 nM and the IC50 (FLT3 signal peptide-GLuc reporter) was 360 nM. It also gave an IC50 (FNDC10 signal peptide-GLuc reporter) of 726 nM, an IC50 (FURIN signal peptide-GLuc reporter) of 4740 nM and an IC50 (GAS6 signal peptide-GLuc reporter) of 118 nM. The IC50 (HJV signal peptide-GLuc reporter) was 427 nM, the IC50 (HLA-G signal peptide-GLuc reporter) was 39.2 nM and the IC50 (HSPA13 signal peptide-GLuc reporter) was 1110 nM. It also gave an IC50 (IGF1R signal peptide-GLuc reporter) of 814 nM, an IC50 (IL1RAP signal peptide-GLuc reporter) of 101 nM and an IC50 (IL4R signal peptide-GLuc reporter) of 32 nM. For the same molecule, the IC50 (IL4 signal peptide-GLuc reporter) was 359 nM, the IC50 (IL5RA signal peptide-GLuc reporter) was 1320 nM and the IC50 (IL5 signal peptide-GLuc reporter) was 1300 nM. It also gave an IC50 (IL6R signal peptide-GLuc reporter) of 92.3 nM, an IC50 (IL6ST signal peptide-GLuc reporter) of 56.5 nM and an IC50 (IL6 signal peptide-GLuc reporter) of 155 nM. For the same molecule, the IC50 (IL7 signal peptide-GLuc reporter) was 5.23 nM, the IC50 (IL10 signal peptide-GLuc reporter) was 434 nM and the IC50 (IL11 signal peptide-GLuc reporter) was 183 nM. The IC50 (IL12B signal peptide-GLuc reporter) was 109 nM, the IC50 (IL12RB1 signal peptide-GLuc reporter) was 64.4 nM and the IC50 (IL13 signal peptide-GLuc reporter) was 59.1 nM. For the same molecule, the IC50 (IL15RA signal peptide-GLuc reporter) was 294 nM, the IC50 (IL15 signal peptide-GLuc reporter) was 116 nM and the IC50 (IL17A signal peptide-GLuc reporter) was 318 nM. The IC50 (IL17F signal peptide-GLuc reporter) was 228 nM, the IC50 (IL17RA signal peptide-GLuc reporter) was 408 nM and the IC50 (IL23A signal peptide-GLuc reporter) was 425 nM. For the same molecule, the IC50 (IL23R signal peptide-GLuc reporter) was 366 nM, the IC50 (ITGA3 signal peptide-GLuc reporter) was 18300 nM and the IC50 (ITGB3 signal peptide-GLuc reporter) was 106 nM. The IC50 (ITGB5 signal peptide-GLuc reporter) was 89.1 nM, the IC50 (ITGB7 signal peptide-GLuc reporter) was 228 nM and the IC50 (JTB signal peptide-GLuc reporter) was 25.5 nM. It also gave an IC50 (KRTDAP signal peptide-GLuc reporter) of 570 nM, an IC50 (LCN6 signal peptide-GLuc reporter) of 101 nM and an IC50 (LDLR signal peptide-GLuc reporter) of 800 nM. The IC50 (LILRB2 signal peptide-GLuc reporter) was 1730 nM, the IC50 (LRP8 signal peptide-GLuc reporter) was 681 nM and the IC50 (MASP2 signal peptide-GLuc reporter) was 127 nM. The IC50 (METTL7A signal peptide-GLuc reporter) was 6900 nM, the IC50 (NGF signal peptide-GLuc reporter) was 347 nM and the IC50 (P3H1 signal peptide-GLuc reporter) was 72.7 nM. The IC50 (PCDHA4 signal peptide-GLuc reporter) was 489 nM, the IC50 (PCSK9 signal peptide-GLuc reporter) was 1280 nM and the IC50 (PDCD1 signal peptide-GLuc reporter) was 37 nM. It also gave an IC50 (PRKCSH signal peptide-GLuc reporter) of 186 nM, an IC50 (PSG8 signal peptide-GLuc reporter) of 292 nM and an IC50 (SIRPA signal peptide-GLuc reporter) of 2030 nM. The IC50 (SSR2 signal peptide-GLuc reporter) was 137 nM, the IC50 (STAB1 signal peptide-GLuc reporter) was 670 nM and the IC50 (SUCO signal peptide-GLuc reporter) was 1450 nM. For the same molecule, the IC50 (TGFB1 signal peptide-GLuc reporter) was 2210 nM, the IC50 (TGFB2 signal peptide-GLuc reporter) was 187 nM and the IC50 (TGFBR1 signal peptide-GLuc reporter) was 134 nM. It also gave an IC50 (TIGIT signal peptide-GLuc reporter) of 590 nM, an IC50 (TMED10 signal peptide-GLuc reporter) of 462 nM and an IC50 (UCN signal peptide-GLuc reporter) of 5900 nM.
